Calls of active or inactive are those of the source. No rule for the calls is given here.
Columns and labels:
[1] = target: T1, Ferrochelatase, mitochondrial (Homo sapiens) (UniProt P22830); details: at 10 µM
T1 sequence (whole entry): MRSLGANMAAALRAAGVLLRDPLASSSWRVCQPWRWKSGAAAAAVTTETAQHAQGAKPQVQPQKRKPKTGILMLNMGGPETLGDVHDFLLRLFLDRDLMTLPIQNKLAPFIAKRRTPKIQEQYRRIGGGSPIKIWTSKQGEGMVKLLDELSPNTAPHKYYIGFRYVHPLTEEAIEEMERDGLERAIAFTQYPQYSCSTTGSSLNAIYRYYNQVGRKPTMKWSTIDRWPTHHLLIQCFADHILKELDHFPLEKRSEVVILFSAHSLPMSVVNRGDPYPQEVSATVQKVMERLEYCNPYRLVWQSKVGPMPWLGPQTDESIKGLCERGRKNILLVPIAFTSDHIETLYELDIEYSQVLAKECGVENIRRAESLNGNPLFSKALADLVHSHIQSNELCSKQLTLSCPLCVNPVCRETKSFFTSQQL
Description: Compound was evaluated for the inhibition of human FECH at 10uM

[2] = target: T2, Porphobilinogen deaminase (Homo sapiens) (UniProt P08397); details: at 100 µM
T2 sequence (whole entry): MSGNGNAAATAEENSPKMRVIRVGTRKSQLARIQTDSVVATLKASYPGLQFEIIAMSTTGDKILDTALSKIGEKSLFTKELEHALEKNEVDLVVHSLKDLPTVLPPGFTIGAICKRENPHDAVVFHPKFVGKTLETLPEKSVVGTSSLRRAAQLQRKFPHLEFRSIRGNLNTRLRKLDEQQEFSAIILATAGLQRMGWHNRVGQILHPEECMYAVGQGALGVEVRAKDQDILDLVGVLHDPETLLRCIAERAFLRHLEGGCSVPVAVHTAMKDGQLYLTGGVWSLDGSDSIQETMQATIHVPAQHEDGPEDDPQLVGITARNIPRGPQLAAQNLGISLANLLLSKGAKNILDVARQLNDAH
Description: Compound was evaluated for the inhibition of human HMBS at 100uM

inhibition [1] | inhibition [2] | Compound
inactive | inactive | COc1cc(OC)cc(C(=O)NCC2Cc3cc(Cl)cc(-c4ccncc4)c3O2)c1 (centres undefined)
inactive | inactive | Nc1nc(N)c2c3c(sc2n1)CN(Cc1ccccc1)CC3
inactive | inactive | CCOC(=O)c1noc(N)c1-c1ccccc1
inactive | inactive | Cc1ccc2nc(Cl)c(CNCc3cccs3)cc2c1
inactive | inactive | CC(C)/N=c1\cc2n(-c3ccc(Cl)cc3)c3ccccc3nc-2cc1Nc1ccc(Cl)cc1
inactive | inactive | Nc1ncc(-c2ccc(C(F)(F)F)nc2)cc1-c1ccc(C(F)(F)F)nc1
inactive | inactive | COc1ccc(-c2cnc3ccc(N4CCCC4)nn23)cc1OC
inactive | inactive | Nc1ccc2ncnc(Nc3ccc(OCc4cccc(F)c4)c(Cl)c3)c2c1
inactive | inactive | C[C@H](c1ccc2c(c1)CCCC2)N(C)c1ncc2c(N)nc(N)nc2n1
inactive | inactive | Nc1ccc(C(=O)Nc2ccc(-c3nc4ccccc4o3)cc2)cc1
inactive | inactive | COc1ccc(-c2nc(-c3cccc(NC(=O)Cc4ccc(F)cc4)c3)no2)cc1OC
inactive | inactive | c1ccc(Oc2ccc(-c3cc(N4CCNCC4)[nH]n3)cc2)cc1
inactive | inactive | CN(C)CCNC(=O)N1CCCN(c2ncnc3cc(-c4ccccc4)sc23)CC1
inactive | inactive | O[C@@H](c1cc(C(F)(F)F)nc2c(C(F)(F)F)cccc12)[C@H]1CCCCN1
inactive | inactive | CCN(CC)CCCN1CCN(C(=O)c2cccc(-c3noc(C(F)(F)F)n3)c2)CC1
inactive | inactive | Clc1cccc(CO[C@H]2CCc3ccccc3[C@@H]2n2ccnn2)c1
inactive | inactive | CCCCc1ccc(NC(=O)Nc2ccc(O[C@H]3CCCC[C@@H]3N(C)c3ccccc3)c(F)c2)cc1
inactive | inactive | COc1ccc(Oc2ccc([C@@H](C)N(C)c3ncc4c(N)nc(N)nc4n3)cc2)cc1
inactive | inactive | CC1(C)Cc2c(c(N3CCOCC3)nc3snc(Br)c23)CO1
inactive | inactive | COc1cccc(-c2nc3c(N4CCCC4)cccc3n2CC2CCCN2)n1 (centres undefined)
inactive | inactive | COc1ccc(N(CCc2cccc(C)n2)C(=O)C2CCCCC2)cc1
inactive | inactive | Cc1nc(-c2ccccn2)nc(N2CCC(Cc3ccccc3)C2)c1Cl (centres undefined)

inhibition [1] | inhibition [2] | Compound
inactive | inactive | CC(C(=O)N1CCCC1)N1CCN(S(=O)(=O)c2ccc(C(C)(C)C)cc2)CC1 (centres undefined)
inactive | inactive | O=C(c1cc2ccccc2o1)N1CCN(Cc2ccc3c(c2)OCO3)CC1
inactive | inactive | Nc1ncc(Br)cc1-c1nc2cc(Cl)cnc2[nH]1
inactive | inactive | COc1cccc(NC(=O)c2c(NC(=O)c3cccnc3)sc3c2CCC3)c1
inactive | inactive | Nc1cccnc1Nc1ccc(Cl)cc1
inactive | inactive | O=C(NCc1cc(Cl)cc(Cl)c1)c1c(C(F)(F)F)nc2ccccn12
inactive | inactive | FC(F)(F)c1cnc(Sc2nnc(-c3ccncc3)o2)c(Cl)c1
inactive | inactive | CC1CCCCN1C(=O)NCCc1coc(-c2ccc(F)cc2)n1 (centres undefined)
inactive | inactive | CS(=O)(=O)c1ccccc1C(=O)N(Cc1ccccc1)c1ccccc1
inactive | inactive | O=C(NC1CC1)c1ccc(N2CCOc3ccc(Cl)cc32)s1
inactive | inactive | O=C(Nc1ccccc1)c1ccc(-c2cc3ccncc3cc2OC2CCNCC2)s1
inactive | inactive | O=C(C(Cc1c[nH]c2ccccc12)NS(=O)(=O)c1ccc(Cl)cc1)N1CCCCC1 (centres undefined)
inactive | inactive | CC1=NN(c2nc3ccccc3s2)C(=O)C1Cc1cccc2ccccc12 (centres undefined)
inactive | inactive | O=C1COCc2ccc(Br)cc2N1Cc1ccc(C(F)(F)F)cc1
inactive | inactive | CC(C)(C(=O)Nc1ccc(F)cc1)n1cc(-c2ccccc2F)cn1
inactive | inactive | CC(C)(C)[C@H]1CC[C@H](CC2=C(O)C(=O)c3ccccc3C2=O)CC1
inactive | inactive | Cc1cc(Nc2ccc(C(F)(F)F)cc2)n2ccnc2n1
inactive | inactive | CCOc1ccc2cc(-c3nn(C(C)(C)C)c(N)c3C(N)=O)cnc2c1
inactive | inactive | NCC(=O)N1CCn2c(nc(-c3ccccc3)c2Nc2ccc3c(c2)OCO3)C1
inactive | inactive | Cn1ccnc1CNCCS(=O)(=O)c1cccc(Nc2ccc(-c3cccc(F)c3)cn2)c1
inactive | inactive | Clc1ccc(CN2CCN(C3=NCCN3)CC2)cc1Cl
inactive | inactive | CCc1ccc(S(=O)(=O)Nc2cc(CN3CCN(CCC(C)C)CC3)ccc2C)cc1

inhibition [1] | inhibition [2] | Compound
inactive | inactive | CN(C)c1cc(NC(=O)Nc2ccccc2)c2ccccc2n1
inactive | inactive | COC(=O)c1ccc(F)cc1NS(=O)(=O)c1cccc(-c2cnn(Cc3ccccc3)c2)c1
inactive | inactive | COc1ccc(CCN2CCC(NCc3cccc(N(C)C)c3)CC2)cc1
inactive | inactive | CCN(CC)CCCCCCNc1cc(OC)cc2c(C)ccnc12
inactive | inactive | COc1ccc(C2=NN(C3CCCCCC3)C(=O)C2(C)C)cc1OCCCCOc1ccc(-c2nn[nH]n2)cc1
inactive | inactive | CCCCCCCCCCCCCCCCOP(=O)([O-])OCC[N+](C)(C)C
inactive | inactive | O=S(=O)(c1ccc(Cl)cc1)N1CCN(C(=S)NCc2ccco2)CC1
inactive | inactive | CCc1nc2ccc(C(=O)NCc3ccc4c(c3)OCO4)cn2c1N(C)Cc1cccs1
inactive | inactive | CCN(CC)C(=O)N1CCN(C)CC1
inactive | inactive | COCC(C)NC(=O)CSc1ncnc2sc(-c3ccccc3)cc12 (centres undefined)
inactive | inactive | O=C(NCCc1ccccc1)c1cc(-c2cccnc2)cnc1NCC1CC1
inactive | inactive | CCOC(=O)NC(=O)c1ccsc1NC(=O)c1nc2ccccc2s1
inactive | inactive | Cc1cnc(N2CCN[C@@H](Cc3ccccc3)C2)nc1Oc1ccc(-n2ccnc2)cc1
inactive | inactive | OCCc1ccc(Nc2nccc(-c3nnc4ccccn34)n2)cc1
inactive | inactive | CCOc1ccccc1C(=O)Nc1cccc(-c2nc3ncccn3c2C)c1
inactive | inactive | O=C(NCCN1CCCC1)c1cc(NCCN2CCOCC2)nc2ccc(Cl)cc12
inactive | inactive | CC(C)(C)CN1C(=O)C(c2ccccc2)(c2ccccc2)N=C1N
inactive | inactive | Cc1nn2c(=O)c3c([nH]c2c1-c1ccc(Cl)cc1)CCCC3
inactive | inactive | Nc1ncnc2c1ncn2C[C@@H](O)[C@@H](O)C(=O)O
inactive | inactive | CC(C)(C)c1cnc(NC(=O)c2ccccc2O)s1

Compound | inhibition [1] | inhibition [2]
COc1ccc2nc(C)cc(OCC(=O)Nc3ccccc3OC)c2c1 | inactive | inactive
O=C1O[C@@H](CO)CN1c1cc(F)c(C2=CCN(Cc3ccccc3)CC2)c(F)c1 | inactive | inactive
Cc1cccc(C(=O)Nc2ccnc(N(C)C3CCN(CC(C)C)CC3)c2)c1 | inactive | inactive
